For twelve molecules, AC50 results are on record in ChEMBL document CHEMBL5291721, “A preclinical secondary pharmacology resource illuminates target-adverse drug reaction associations of marketed drugs” (Nat Commun, 2023).

For orientation: AC50 means the midpoint of the concentration-response curve, whichever way the signal moves.

Assay [1] has as its target 5-hydroxytryptamine receptor 2B (Homo sapiens, UniProt P41595). Format: functional, cell-based.
Assay [2] concerns the target T1, Alpha-2A adrenergic receptor (Homo sapiens, UniProt P08913).
T1 sequence (P08913 whole entry): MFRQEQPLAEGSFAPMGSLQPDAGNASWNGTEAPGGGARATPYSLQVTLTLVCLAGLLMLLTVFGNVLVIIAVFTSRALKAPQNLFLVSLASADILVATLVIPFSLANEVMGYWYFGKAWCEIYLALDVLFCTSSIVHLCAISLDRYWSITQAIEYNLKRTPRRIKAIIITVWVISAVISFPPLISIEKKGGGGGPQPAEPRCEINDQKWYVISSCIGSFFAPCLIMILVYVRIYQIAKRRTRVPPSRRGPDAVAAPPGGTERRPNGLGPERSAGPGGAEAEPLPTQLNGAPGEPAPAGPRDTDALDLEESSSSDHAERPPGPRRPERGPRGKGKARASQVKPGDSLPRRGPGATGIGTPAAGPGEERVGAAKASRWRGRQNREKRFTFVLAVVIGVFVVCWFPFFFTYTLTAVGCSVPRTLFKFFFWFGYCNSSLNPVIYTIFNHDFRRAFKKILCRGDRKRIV
Format: functional, cell-based.

In assay [3] the target is T2, Muscarinic acetylcholine receptor M2 (Homo sapiens, UniProt P08172).
T2 sequence (P08172 whole entry): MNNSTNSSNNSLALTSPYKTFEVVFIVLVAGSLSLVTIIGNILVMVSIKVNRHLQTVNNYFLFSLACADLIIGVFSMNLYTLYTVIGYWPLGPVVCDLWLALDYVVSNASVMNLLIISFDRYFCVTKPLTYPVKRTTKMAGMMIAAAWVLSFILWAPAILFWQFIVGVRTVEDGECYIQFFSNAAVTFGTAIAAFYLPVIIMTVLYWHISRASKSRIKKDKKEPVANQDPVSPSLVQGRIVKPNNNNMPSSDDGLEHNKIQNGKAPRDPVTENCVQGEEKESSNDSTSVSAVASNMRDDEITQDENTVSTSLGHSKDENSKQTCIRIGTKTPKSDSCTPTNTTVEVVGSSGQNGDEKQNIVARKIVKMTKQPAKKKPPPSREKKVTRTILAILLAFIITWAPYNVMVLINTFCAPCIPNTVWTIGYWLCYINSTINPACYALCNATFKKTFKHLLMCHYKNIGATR
Format: functional, cell-based.

In assay [4] the target is Delta-type opioid receptor (Homo sapiens, UniProt P41143).
Delta-type opioid receptor, sequence (P41143 whole entry): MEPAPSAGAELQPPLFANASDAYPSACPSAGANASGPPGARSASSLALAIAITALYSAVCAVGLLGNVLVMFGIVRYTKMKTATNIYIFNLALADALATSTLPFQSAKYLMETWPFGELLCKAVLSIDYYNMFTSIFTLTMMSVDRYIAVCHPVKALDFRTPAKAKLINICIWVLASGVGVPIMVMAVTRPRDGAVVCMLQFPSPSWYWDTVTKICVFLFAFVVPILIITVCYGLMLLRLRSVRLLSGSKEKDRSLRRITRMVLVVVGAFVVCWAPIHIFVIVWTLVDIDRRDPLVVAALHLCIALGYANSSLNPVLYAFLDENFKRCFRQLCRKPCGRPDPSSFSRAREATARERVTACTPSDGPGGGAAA
Assay [5] has as its target Kappa-type opioid receptor (Homo sapiens, UniProt P41145).
Assay [6] concerns the target T3, 5-hydroxytryptamine receptor 1A (Homo sapiens, UniProt P08908).
T3 sequence (P08908 whole entry): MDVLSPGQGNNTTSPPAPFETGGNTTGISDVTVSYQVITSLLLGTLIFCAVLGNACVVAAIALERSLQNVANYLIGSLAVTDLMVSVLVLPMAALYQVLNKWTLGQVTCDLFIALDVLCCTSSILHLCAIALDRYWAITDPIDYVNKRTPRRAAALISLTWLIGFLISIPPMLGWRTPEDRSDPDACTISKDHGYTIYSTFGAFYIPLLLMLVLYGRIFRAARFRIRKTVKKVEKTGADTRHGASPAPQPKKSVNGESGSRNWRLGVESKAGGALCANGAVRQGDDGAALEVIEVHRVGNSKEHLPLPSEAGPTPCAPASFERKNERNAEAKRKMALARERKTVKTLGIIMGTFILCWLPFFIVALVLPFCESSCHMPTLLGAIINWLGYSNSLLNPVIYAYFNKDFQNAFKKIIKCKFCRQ
In kind it is functional, cell-based.

Assay [7] addresses T4, Prostaglandin G/H synthase 1 (Rattus norvegicus, UniProt Q63921).
T4 sequence (Q63921 whole entry): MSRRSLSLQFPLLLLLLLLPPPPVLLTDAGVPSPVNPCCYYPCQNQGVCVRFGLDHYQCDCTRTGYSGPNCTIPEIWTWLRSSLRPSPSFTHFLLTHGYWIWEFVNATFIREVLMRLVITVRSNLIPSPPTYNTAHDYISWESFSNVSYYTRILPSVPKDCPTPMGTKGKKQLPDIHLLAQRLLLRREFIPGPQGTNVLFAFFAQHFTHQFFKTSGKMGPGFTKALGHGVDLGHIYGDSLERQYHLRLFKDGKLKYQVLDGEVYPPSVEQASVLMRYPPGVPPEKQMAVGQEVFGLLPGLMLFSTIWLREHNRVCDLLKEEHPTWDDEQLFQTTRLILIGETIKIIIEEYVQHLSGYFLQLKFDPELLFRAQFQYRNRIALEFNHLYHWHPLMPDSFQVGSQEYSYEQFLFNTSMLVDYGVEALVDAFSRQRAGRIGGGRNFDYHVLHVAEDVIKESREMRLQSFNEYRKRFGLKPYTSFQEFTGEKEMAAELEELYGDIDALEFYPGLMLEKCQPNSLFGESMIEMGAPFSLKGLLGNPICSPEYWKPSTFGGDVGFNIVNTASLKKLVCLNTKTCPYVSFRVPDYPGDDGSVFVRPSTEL
In kind it is functional.

In another assay the target is T5, B2 bradykinin receptor (Homo sapiens, UniProt P30411).
T5 sequence (P30411 whole entry): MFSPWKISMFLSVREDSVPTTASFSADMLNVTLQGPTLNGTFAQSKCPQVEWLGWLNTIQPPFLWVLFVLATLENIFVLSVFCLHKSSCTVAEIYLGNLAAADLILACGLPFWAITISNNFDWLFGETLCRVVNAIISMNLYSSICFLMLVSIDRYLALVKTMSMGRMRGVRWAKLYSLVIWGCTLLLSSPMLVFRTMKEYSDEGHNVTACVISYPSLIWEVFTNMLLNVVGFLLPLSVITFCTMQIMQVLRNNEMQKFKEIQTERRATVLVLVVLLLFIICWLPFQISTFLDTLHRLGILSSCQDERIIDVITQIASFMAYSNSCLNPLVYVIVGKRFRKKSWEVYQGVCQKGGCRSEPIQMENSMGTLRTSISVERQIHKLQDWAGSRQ

Assay [8] deals with Voltage-dependent L-type calcium channel subunit alpha-1C (Rattus norvegicus, UniProt P22002). In kind it is functional.
Voltage-dependent L-type calcium channel subunit alpha-1C, sequence (P22002 whole entry): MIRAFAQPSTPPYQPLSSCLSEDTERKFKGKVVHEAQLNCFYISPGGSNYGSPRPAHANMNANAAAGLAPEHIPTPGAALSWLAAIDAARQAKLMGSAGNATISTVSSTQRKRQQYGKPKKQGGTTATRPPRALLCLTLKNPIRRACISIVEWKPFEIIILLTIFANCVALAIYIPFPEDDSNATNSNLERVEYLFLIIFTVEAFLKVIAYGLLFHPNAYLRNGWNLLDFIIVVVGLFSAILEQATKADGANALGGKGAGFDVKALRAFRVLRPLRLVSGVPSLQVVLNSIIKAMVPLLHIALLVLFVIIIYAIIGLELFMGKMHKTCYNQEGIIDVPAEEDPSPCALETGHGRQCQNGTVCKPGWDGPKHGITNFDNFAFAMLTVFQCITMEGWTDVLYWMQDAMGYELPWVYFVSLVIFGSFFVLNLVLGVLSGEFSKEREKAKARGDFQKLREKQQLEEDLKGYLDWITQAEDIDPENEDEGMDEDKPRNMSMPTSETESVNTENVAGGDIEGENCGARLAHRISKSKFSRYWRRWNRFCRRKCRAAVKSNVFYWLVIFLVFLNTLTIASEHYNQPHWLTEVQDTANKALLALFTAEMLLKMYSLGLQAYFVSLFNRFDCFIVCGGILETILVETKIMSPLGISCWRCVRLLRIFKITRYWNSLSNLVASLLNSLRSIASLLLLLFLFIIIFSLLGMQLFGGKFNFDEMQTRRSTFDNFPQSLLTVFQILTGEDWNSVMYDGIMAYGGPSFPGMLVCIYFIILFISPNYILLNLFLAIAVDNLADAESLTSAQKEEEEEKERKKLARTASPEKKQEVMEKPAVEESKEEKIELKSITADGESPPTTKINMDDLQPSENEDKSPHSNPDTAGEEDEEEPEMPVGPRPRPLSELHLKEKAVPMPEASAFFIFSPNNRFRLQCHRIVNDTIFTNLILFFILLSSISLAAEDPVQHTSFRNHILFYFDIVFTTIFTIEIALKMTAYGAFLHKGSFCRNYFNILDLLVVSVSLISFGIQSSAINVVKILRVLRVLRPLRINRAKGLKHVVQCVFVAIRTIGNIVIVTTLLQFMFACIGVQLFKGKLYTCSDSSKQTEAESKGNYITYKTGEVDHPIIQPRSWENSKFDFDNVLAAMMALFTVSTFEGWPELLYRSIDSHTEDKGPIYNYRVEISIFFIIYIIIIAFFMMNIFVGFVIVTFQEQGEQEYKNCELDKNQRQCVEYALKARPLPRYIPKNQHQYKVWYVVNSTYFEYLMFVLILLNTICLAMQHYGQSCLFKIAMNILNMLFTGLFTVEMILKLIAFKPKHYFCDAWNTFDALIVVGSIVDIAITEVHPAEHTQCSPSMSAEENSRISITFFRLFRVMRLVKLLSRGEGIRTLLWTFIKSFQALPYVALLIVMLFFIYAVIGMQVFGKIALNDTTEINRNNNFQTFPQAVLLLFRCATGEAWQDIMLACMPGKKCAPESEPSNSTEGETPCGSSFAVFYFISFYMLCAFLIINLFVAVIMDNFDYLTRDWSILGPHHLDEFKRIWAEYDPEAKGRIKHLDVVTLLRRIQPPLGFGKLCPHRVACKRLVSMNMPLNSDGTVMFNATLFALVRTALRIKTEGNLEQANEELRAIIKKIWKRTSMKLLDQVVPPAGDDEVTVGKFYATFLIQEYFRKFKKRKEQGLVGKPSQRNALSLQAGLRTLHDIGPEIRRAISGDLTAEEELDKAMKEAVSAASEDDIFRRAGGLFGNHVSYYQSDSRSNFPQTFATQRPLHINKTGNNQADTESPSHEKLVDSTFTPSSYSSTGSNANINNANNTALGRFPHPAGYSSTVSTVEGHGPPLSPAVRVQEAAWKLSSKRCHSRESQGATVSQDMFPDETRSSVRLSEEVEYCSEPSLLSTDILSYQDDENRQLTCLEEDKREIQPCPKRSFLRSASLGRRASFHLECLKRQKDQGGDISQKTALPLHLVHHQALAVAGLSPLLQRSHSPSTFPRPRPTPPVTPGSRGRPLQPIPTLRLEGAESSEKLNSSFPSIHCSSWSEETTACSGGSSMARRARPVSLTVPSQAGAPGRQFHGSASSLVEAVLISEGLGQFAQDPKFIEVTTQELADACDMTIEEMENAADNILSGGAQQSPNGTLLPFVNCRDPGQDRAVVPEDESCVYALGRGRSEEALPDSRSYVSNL
In the next assay the target is T6, Adenosine receptor A1 (Homo sapiens, UniProt P30542).
T6 sequence (P30542 whole entry): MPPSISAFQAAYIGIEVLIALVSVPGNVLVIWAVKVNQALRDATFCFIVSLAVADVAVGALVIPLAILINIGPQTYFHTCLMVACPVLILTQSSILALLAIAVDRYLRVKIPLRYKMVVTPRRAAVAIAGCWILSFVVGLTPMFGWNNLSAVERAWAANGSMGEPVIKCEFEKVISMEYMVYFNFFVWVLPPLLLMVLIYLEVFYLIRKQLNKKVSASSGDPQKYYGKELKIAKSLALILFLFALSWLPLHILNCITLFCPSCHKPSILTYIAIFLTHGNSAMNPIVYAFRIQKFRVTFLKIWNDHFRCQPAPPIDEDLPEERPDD

Where only a bound is given, the exact number is not on record here.
Note: assay procedure not described here.

5-hydroxytryptamine receptor 2B, sequence (P41595 whole entry): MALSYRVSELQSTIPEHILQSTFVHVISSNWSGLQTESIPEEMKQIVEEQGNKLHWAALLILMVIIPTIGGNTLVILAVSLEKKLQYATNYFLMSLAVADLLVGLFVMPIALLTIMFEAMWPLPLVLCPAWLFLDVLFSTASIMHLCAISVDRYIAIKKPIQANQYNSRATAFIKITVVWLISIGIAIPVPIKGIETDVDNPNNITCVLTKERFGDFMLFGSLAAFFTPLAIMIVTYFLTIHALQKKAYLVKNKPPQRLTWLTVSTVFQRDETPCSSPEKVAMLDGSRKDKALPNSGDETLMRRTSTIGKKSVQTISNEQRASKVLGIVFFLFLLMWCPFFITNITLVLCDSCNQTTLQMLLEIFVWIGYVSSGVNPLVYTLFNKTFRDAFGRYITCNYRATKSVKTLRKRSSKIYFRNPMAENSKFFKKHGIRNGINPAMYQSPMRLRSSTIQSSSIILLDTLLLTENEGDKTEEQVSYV
Kappa-type opioid receptor, sequence (P41145 whole entry): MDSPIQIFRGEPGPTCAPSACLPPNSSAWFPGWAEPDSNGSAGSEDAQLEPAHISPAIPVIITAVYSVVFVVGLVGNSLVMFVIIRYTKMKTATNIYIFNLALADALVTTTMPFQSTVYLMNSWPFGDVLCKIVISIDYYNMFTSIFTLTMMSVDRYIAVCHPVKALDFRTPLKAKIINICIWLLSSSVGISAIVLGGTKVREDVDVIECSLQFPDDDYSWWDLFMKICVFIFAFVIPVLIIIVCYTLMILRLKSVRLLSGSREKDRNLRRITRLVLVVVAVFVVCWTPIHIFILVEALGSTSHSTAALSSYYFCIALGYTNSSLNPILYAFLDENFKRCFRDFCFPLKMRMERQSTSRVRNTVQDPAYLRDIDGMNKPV

Take `CC(=O)NS(=O)(=O)c1ccc(N)cc1` [SULFACETAMIDE]: the AC50 was over 10 µM in assay [1]; over 10 µM in [2]; over 10 µM in [3]; over 30 µM in [4]; over 10 µM in assay [5]; over 10 µM in assay [6]. The AC50 (in assay [7]; at B2 bradykinin receptor; in assay [8]; on Adenosine receptor A1) was over 10 µM throughout.
As to `COc1ccc(C(=O)NCc2ccc(OCCN(C)C)cc2)cc1OC` [ITOPRIDE], the AC50 in [1], in [2], in assay [3], in assay [4], in assay [5] and in assay [6] was over 30 µM in each case. Moreover, the AC50 is over 10 µM in assay [7], over 30 µM at B2 bradykinin receptor, over 30 µM in assay [8] and over 30 µM at Adenosine receptor A1.
Turning to `CN1CC(=O)N2[C@H](c3ccc4c(c3)OCO4)c3[nH]c4ccccc4c3C[C@@H]2C1=O`, the concentration at half-maximal activity (AC50) in assay [1] is over 10 µM; in assay [2] it was over 10 µM; in assay [3], over 10 µM; in assay [4] it was over 30 µM; in assay [5], over 10 µM; in assay [6], over 10 µM. Besides, the AC50 is over 30 µM in assay [7], over 30 µM on B2 bradykinin receptor, over 10 µM in [8] and over 30 µM at Adenosine receptor A1.
In the case of `COc1c(N2CCNC(C)C2)c(F)cc2c(=O)c(C(=O)O)cn(C3CC3)c12` (stereo not given) [GATIFLOXACIN], the AC50 in assay [1] was over 10 µM; in assay [2], over 10 µM; in assay [3], over 10 µM; in [4], over 30 µM; in [5], over 10 µM; in [6] it was over 10 µM. Moreover, the AC50 (in assay [7]; at B2 bradykinin receptor; in assay [8]; at Adenosine receptor A1) was over 10 µM each time.
`O=C(O)Cc1cn(-c2ccccc2)nc1-c1ccc(Cl)cc1` [LONAZOLAC]: the AC50 in assay [1], in assay [2], in [3], in [4], in assay [5] and in [6] was over 30 µM in each case. In addition, the AC50 in assay [7] was 19 µM; at B2 bradykinin receptor it was over 30 µM; in assay [8], over 30 µM; on Adenosine receptor A1 it was over 30 µM.
On to `CN1CC[C@]23CCCC[C@H]2[C@H]1Cc1ccc(O)cc13` [LEVORPHANOL], for which the AC50 in assay [1] is over 10 µM; in [2] it was over 10 µM; in [3], over 10 µM; in [4] it was over 30 µM; in assay [5], 5.85 µM; in assay [6] it was over 10 µM. Moreover, the AC50 (in assay [7]; on B2 bradykinin receptor; in [8]; on Adenosine receptor A1) was over 10 µM each time.
As for `CN1CCCN=C1COC(=O)C(O)(c1ccccc1)C1CCCCC1` (stereo not given) [OXYPHENCYCLIMINE], the AC50 in [1] is over 10 µM; in [2], over 10 µM; in assay [3], over 10 µM; in assay [4], over 30 µM; in assay [5], over 10 µM; in assay [6], over 10 µM. The AC50 (in assay [7]; at B2 bradykinin receptor; in [8]; at Adenosine receptor A1) was over 10 µM in each case.
On to `CC(C)[N+](C)(CCC(C(N)=O)(c1ccccc1)c1ccccc1)C(C)C` [ISOPROPAMIDE], for which the AC50 in [1] is over 10 µM; in assay [2], over 10 µM; in assay [3], over 10 µM; in [4], over 30 µM; in assay [5], over 10 µM; in assay [6], over 10 µM. Also, the AC50 (in assay [7]; on B2 bradykinin receptor; in assay [8]; on Adenosine receptor A1) was over 10 µM each time.
In the case of `CC(Cc1ccccc1)NCCC(c1ccccc1)c1ccccc1` (stereo not given) [PRENYLAMINE], the concentration at half-maximal activity (AC50) in assay [1] was over 10 µM; in assay [2] it was over 10 µM; in [3] it was over 10 µM; in [4], over 30 µM; in assay [5] it was 0.382 µM; in [6], over 30 µM. For the same molecule, the AC50 in [7] was over 30 µM; on B2 bradykinin receptor it was over 30 µM; in assay [8] it was 4.28 µM; on Adenosine receptor A1, over 30 µM.
As to `CN1CCN(C(=O)OC2c3nccnc3C(=O)N2c2ccc(Cl)cn2)CC1` (stereo not given) [ZOPICLONE], the AC50 in [1], in assay [2], in [3], in [4], in assay [5] and in [6] was over 10 µM each time. The AC50 is over 30 µM in [7], over 30 µM on B2 bradykinin receptor, over 10 µM in assay [8] and over 30 µM at Adenosine receptor A1.
Consider `O=C(OCCN1CCOCC1)c1cccnc1Nc1cccc(C(F)(F)F)c1` [MORNIFLUMATE], for which the AC50 is over 30 µM in assay [1]; over 30 µM in assay [2]; over 30 µM in assay [3]; over 30 µM in [4]; 24 µM in assay [5]; over 30 µM in [6]. Also, the AC50 (in assay [7]; at B2 bradykinin receptor; in assay [8]; at Adenosine receptor A1) was over 30 µM each time.
In the case of `C1=Cc2cccc(OCC3CNCCO3)c2C1` (stereo not given) [INDELOXAZINE], the AC50 in [1] was over 30 µM; in [2], over 30 µM; in [3], over 30 µM; in [4], 22 µM; in assay [5], 25 µM; in [6] it was over 30 µM. Moreover, the AC50 (in assay [7]; on B2 bradykinin receptor; in assay [8]; at Adenosine receptor A1) was over 30 µM throughout.
